The record followed here is US7855292B2, “Sulfonamide compounds” (Janssen Pharmaceutica NV, priority 2004, dated 2010).

For one test, the target named is T1, CCK2 receptor (Homo sapiens, UniProt P32239).
T1 construct: analyzed for ZFP expression as well as CCK2R induction upon addition of doxycycline to the culture medium; endogenous in cells
T1 sequence (P32239 1-447): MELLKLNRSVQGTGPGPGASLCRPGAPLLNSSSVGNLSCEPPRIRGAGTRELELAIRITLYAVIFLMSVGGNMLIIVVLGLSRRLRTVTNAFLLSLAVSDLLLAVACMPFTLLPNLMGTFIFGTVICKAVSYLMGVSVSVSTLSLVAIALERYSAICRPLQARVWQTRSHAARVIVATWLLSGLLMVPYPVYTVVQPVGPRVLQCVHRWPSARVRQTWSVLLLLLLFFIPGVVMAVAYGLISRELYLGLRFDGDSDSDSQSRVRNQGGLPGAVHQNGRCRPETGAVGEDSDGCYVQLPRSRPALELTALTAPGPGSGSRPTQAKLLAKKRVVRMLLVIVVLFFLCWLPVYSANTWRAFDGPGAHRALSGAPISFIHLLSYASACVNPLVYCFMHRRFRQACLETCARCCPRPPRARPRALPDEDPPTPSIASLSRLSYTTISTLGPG
In words: CCK2 binding assay ([125I]-BH-CCK-8S displacement, HEKZFP membranes). The conditions noted are these: membranes of doxycycline-induced HEKZFP cells, 20 pM [125I]-BH-CCK-8S, 60 min at 21±3° C.; for Ki: read-out: CCK2 pKi (converted).

In another test the target is T2, CCK-1 receptor (Homo sapiens, UniProt P32238).
T2 construct: expressed in transfected cells; host or cells: CHO-K1
T2 sequence (P32238 1-428): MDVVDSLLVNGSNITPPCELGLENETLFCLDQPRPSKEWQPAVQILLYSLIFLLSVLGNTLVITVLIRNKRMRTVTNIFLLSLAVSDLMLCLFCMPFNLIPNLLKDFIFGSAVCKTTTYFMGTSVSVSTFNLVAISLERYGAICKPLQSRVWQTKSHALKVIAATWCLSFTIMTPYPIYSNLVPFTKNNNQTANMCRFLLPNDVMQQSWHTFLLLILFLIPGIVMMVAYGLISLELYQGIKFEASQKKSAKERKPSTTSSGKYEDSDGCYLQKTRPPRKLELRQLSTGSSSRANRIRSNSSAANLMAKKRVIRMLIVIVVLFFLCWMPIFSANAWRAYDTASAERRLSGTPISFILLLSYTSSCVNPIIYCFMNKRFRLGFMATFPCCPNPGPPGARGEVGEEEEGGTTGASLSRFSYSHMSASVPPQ
In words: CCK1 binding assay ([125I]-BH-CCK-8S displacement, CHO-K1 membranes). The conditions noted are these: membranes of CHO-K1 cells stably transfected with the CCK-1 receptor, 20 pM [125I]-BH-CCK-8S, 0.3 μM PD-134,308 present, 60 min at 21±3° C.; for Ki: read-out: CCK1 pKi (converted). A digest of the protocol: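 Membranes from CHO-K1 cells stably expressing CCK-1 incubated 1 h at 21±3° C with 20 pM [125I]-BH-CCK-8S in HEPES buffer pH 7.2 containing 0.3 μM PD-134,308 to block CCK-2. Bound radioactivity read by gamma counting after filtration. pKi derived via Cheng-Prusoff, with specific binding defined using 2-NAP.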

Regarding `O=C(N[C@@H](Cc1ccc(Cl)c(I)c1)C(=O)O)c1ccc(I)cc1NS(=O)(=O)c1cccc2nsnc12` [Example 92, (S)-2-[2-(Benzo[1,2,5]thiadiazole-4-sulfonylamino)-4-iodo-benzoylamino]-3-(4-chloro-3-iodo-phenyl)-propionic acid], the Ki on CCK2 receptor is 31.6 nM; at CCK-1 receptor it was 63.1 nM.

Take `O=C(N[C@@H](Cc1ccccc1)C(=O)O)c1cc(Cl)c(Cl)cc1NS(=O)(=O)c1cccc2nsnc12` [Example 3, 2-[2-(Benzo[1,2,5]thiadiazole-4-sulfonylamino)-4,5-dichloro-benzoylamino]-3-phenyl-propionic acid]: the Ki on CCK2 receptor was 39.8 nM; on CCK-1 receptor it was 1000 nM.

With `Cc1ccc(C(=O)NCC(C)c2ccc(Cl)cc2)c(NS(=O)(=O)c2cccc3nsnc23)c1` (racemic) [Example 54, (±)-2-(Benzo[1,2,5]thiadiazole-4-sulfonylamino)-N-[2-(4-chloro-phenyl)-propyl]-4-methyl-benzamide], the Ki was 316 nM on CCK2 receptor and 794 nM at CCK-1 receptor.

Take `COC(=O)[C@H](Cc1ccc(F)c(Br)c1)NC(=O)c1cc(Cl)c(Cl)cc1NS(=O)(=O)c1cccc2nsnc12` [Example 150, (S)-2-[2-(Benzo[1,2,5]thiadiazole-4-sulfonylamino)-4,5-dichloro-benzoylamino]-3-(3-bromo-4-fluoro-phenyl)-propionic acid methyl ester]: the Ki was 251 nM at CCK2 receptor and 79.4 nM at CCK-1 receptor.

`O=C(N[C@@H](Cc1ccc(Cl)c(I)c1)C(=O)O)c1ccc(I)cc1NS(=O)(=O)c1cccc2nccnc12` [Example 138, (S)-3-(4-Chloro-3-iodo-phenyl)-2-[4-iodo-2-(quinoxaline-5-sulfonylamino)-benzoylamino]-propionic acid]: the Ki at CCK2 receptor was 50.1 nM; on CCK-1 receptor it was 100 nM.

On to `O=C(N[C@@H](Cc1ccc(F)c(Br)c1)C(=O)O)c1ccc(I)cc1NS(=O)(=O)c1cccc2nsnc12` [Example 93, (S)-2-[2-(Benzo[1,2,5]thiadiazole-4-sulfonylamino)-4-iodo-benzoylamino]-3-(3-bromo-4-fluoro-phenyl)-propionic acid], for which the “CCK2 pKi” value on CCK2 receptor amounted to 8.3. The “CCK1 pKi” value at CCK-1 receptor worked out at 6.8.

Take `C[C@@H](CNC(=O)c1ccc(Br)cc1NS(=O)(=O)c1cccc2nsnc12)c1ccccc1` [Example 36, (R)-2-(Benzo[1,2,5]thiadiazole-4-sulfonylamino)-4-bromo-N-(2-phenyl-propyl)-benzamide]: the “CCK2 pKi” value at CCK2 receptor is on record as 5.8. For the same compound, the “CCK1 pKi” value at CCK-1 receptor is on record as 7.1.

In the case of `O=C(N[C@@H](Cc1ccc2ccccc2c1)C(=O)O)c1ccc(Cl)cc1NS(=O)(=O)c1cccc2nccnc12` [Example 9, (S)-2-[4-Chloro-2-(quinoxaline-5-sulfonylamino)-benzoylamino]-3-naphthalen-2-yl-propionic acid], the Ki was 398 nM on CCK2 receptor and 158 nM on CCK-1 receptor.

On to `CC(CNC(=O)c1ccc(Br)cc1NS(=O)(=O)c1cccc2nsnc12)c1ccc(Cl)cc1` (centres unmarked) [Example 21, 2-(Benzo[1,2,5]thiadiazole-4-sulfonylamino)-4-bromo-N-[2-(4-chloro-phenyl)-propyl]-benzamide], for which the Ki on CCK2 receptor is 1000 nM; on CCK-1 receptor, 126 nM.

As for `O=C(N[C@H](C(=O)O)C(c1ccc(Cl)cc1)c1ccc(Cl)cc1)c1ccc(I)cc1NS(=O)(=O)c1cccc2nsnc12` [Example 94, (S)-2-[2-(Benzo[1,2,5]thiadiazole-4-sulfonylamino)-4-iodo-benzoylamino]-3,3-bis-(4-chloro-phenyl)-propionic acid], the Ki at CCK2 receptor was 1000 nM; at CCK-1 receptor it was 6310 nM.

`COC(=O)[C@H](Cc1ccc(F)c(Br)c1)NC(=O)c1ccc(Br)cc1NS(=O)(=O)c1cccc2nccnc12` [Example 151, (S)-3-(3-Bromo-4-fluoro-phenyl)-2-[4-bromo-2-(quinoxaline-5-sulfonylamino)-benzoylamino]-propionic acid methyl ester]: the Ki was 126 nM on CCK2 receptor and 794 nM at CCK-1 receptor.

With `C[C@H](CNC(=O)c1ccc(Br)cc1NS(=O)(=O)c1cccc2nsnc12)c1ccccc1` [Example 35, (S)-2-(Benzo[1,2,5]thiadiazole-4-sulfonylamino)-4-bromo-N-(2-phenyl-propyl)-benzamide], at CCK2 receptor, the “CCK2 pKi” value came out at 6.3. Besides, the “CCK1 pKi” value on CCK-1 receptor is 7.2.

As to `O=C(N[C@@H](Cc1cc(F)c(Cl)cc1Cl)C(=O)O)c1ccc(I)cc1NS(=O)(=O)c1cccc2nsnc12` [Example 134, (S)-2-[2-(Benzo[1,2,5]thiadiazole-4-sulfonylamino)-4-iodo-benzoylamino]-3-(2,4-dichloro-5-fluoro-phenyl)-propionic acid], the results for the Ki on CCK2 receptor and at CCK-1 receptor were 20 nM and 501 nM, respectively.

Consider `O=C(N[C@@H](Cc1ccc(F)c(Br)c1)C(=O)O)c1cc(Cl)c(Cl)cc1NS(=O)(=O)c1cccc2nccnc12` [Example 160, (S)-3-(3-Bromo-4-fluoro-phenyl)-2-[4,5-dichloro-2-(quinoxaline-5-sulfonylamino)-benzoylamino]-propionic acid], for which the “CCK2 pKi” value on CCK2 receptor is listed as 8.2. Besides, the “CCK1 pKi” value at CCK-1 receptor is on record as 6.8.

For the compound `O=C(N[C@H](Cc1ccc(Cl)cc1)C(=O)O)c1cc(Cl)ccc1NS(=O)(=O)c1cccc2nsnc12` [Example 62, (R)-2-[2-(Benzo[1,2,5]thiadiazole-4-sulfonylamino)-5-chloro-benzoylamino]-3-(4-chloro-phenyl)-propionic acid], the results for the Ki on CCK2 receptor and on CCK-1 receptor were 3160 nM and 316 nM, respectively.

`O=C(NC1Cc2ccccc2C1)c1ccc(Cl)cc1NS(=O)(=O)c1cccc2nsnc12` [Example 50, 2-(Benzo[1,2,5]thiadiazole-4-sulfonylamino)-4-chloro-N-indan-2-yl-benzamide]: the figures for the Ki at CCK2 receptor and on CCK-1 receptor were 6310 nM and 631 nM, respectively.

Regarding `O=C(O)C[C@H](Cc1ccc(Cl)c(Cl)c1)NC(=O)c1ccc(Cl)cc1NS(=O)(=O)c1cccc2nccnc12` [Example 64, (S)-3-[4-Chloro-2-(quinoxaline-5-sulfonylamino)-benzoylamino]-4-(3,4-dichloro-phenyl)-butyric acid], the Ki at CCK2 receptor was 100 nM; at CCK-1 receptor, 1580 nM.

Take `O=C(N[C@@H](Cc1ccc(Cl)cc1)C(=O)O)c1cc(Cl)ccc1NS(=O)(=O)c1cccc2nsnc12` [Example 83, (S)-2-[2-(Benzo[1,2,5]thiadiazole-4-sulfonylamino)-5-chloro-benzoylamino]-3-(4-chloro-phenyl)-propionic acid]: the Ki on CCK2 receptor is 251 nM; at CCK-1 receptor, 1580 nM.

For `CC(CNC(=O)c1cc(Cl)ccc1NS(=O)(=O)c1cccc2nsnc12)c1ccc(Cl)c(Cl)c1` (racemic) [Example 16, (±)-2-(Benzo[1,2,5]thiadiazole-4-sulfonylamino)-5-chloro-N-[2-(3,4-dichloro-phenyl)-propyl]-benzamide], the Ki at CCK2 receptor is 631 nM; at CCK-1 receptor, 63.1 nM.

Take `O=C(N[C@@H](Cc1ccc(F)c(Br)c1)C(=O)O)c1ccc(Br)cc1NS(=O)(=O)c1cccc2nsnc12` [Example 162, (S)-2-[2-(Benzo[1,2,5]thiadiazole-4-sulfonylamino)-4-bromo-benzoylamino]-3-(3-bromo-4-fluoro-phenyl)-propionic acid]: the “CCK2 pKi” value at CCK2 receptor came out at 8.2. Besides, the “CCK1 pKi” value at CCK-1 receptor was 6.6.

As for `C[C@@H](NC(=O)c1ccc(I)cc1NS(=O)(=O)c1cccc2nsnc12)[C@@H](O)c1cccc(Br)c1` [Example 101, 2-(Benzo[1,2,5]thiadiazole-4-sulfonylamino)-N-[(2S,1R)-2-(3-bromo-phenyl)-2-hydroxy-1-methyl-ethyl]-4-iodo-benzamide], the figures for the Ki on CCK2 receptor and at CCK-1 receptor were 794 nM and 39.8 nM, respectively.

`O=C(N[C@@H](Cc1ccc(Cl)c(Cl)c1)C(=O)NCc1ccccc1)c1ccc(Cl)cc1NS(=O)(=O)c1cccc2nsnc12` [Example 129, (S)-2-(Benzo[1,2,5]thiadiazole-4-sulfonylamino)-N-[1-benzylcarbamoyl-2-(3,4-dichloro-phenyl)-ethyl]-4-chloro-benzamide]: the Ki on CCK2 receptor was 631 nM; at CCK-1 receptor, 100 nM.
